Patent US20130309306A1, “INTRAPULMONARY BENZODIAZEPINE FOR THE TREATMENT AND PREVENTION OF SEIZURES” (priority 2010, published 2013)

What was measured:
[1] = Horizontal screen test, acute motor toxicity; type: in vivo, mice; settings: intratracheal 100 μg/kg, any time point of the time course experiment
Method: The horizontal screen test was used to assess the acute motor toxicity of intratracheal midazolam (100 μg/kg) in the time course experiment.

PTZ-induced seizures = test: PTZ seizure threshold test, tonic extension endpoint, Example 2; type: in vivo, mice
Method: NIH Swiss mice (22-30 g) were kept in a vivarium under controlled environmental conditions (temperature, 22-26° C.; humidity, 40-50%) with an artificial 12-h light/dark cycle. Wood chips were used in all cages. Experiments were performed during the light phase of the light/dark cycle after a minimum 30-min period of acclimation to the experimental room. The animal facilities were fully accredited by the Association for Assessment and Accreditation of Laboratory Animal Care. All studies were performed under protocols approved by the Animal Care and Use Committee of the University of California, Davis in strict compliance with the Guide for the Care and Use of Laboratory Animals of the National Research Council (National Academy Press, Washington, D.C.; on the internet at nap.edu/readingroom/books/labrats/).
Midazolam was administered as a commercially available injectable solution (midazolam hydrochloride, 10 mg/10 ml; APP Pharmaceuticals, Schaumburg, Ill., USA) containing sodium chloride (0.8% w/v), disodium edetate (0.01% w/v), benzyl alcohol as preservative (1% v/v) with HCl to adjust the pH 3-3.6. Pentylenetetrazol (PTZ) (Sigma-Aldrich, St. Louis, Mo., USA) was dissolved in 0.9% w/v saline. The remaining test substances were all obtained from Tocris Bioscience (Ellisville, Mo., USA) except for clonazepam, which was from Sigma-Aldrich. Finasteride was dissolved in 25% hydroxypropyl-β-cyclodextrin (Trappsol; Cyclodextrin Technologies Development, High Springs, Fla., U.S.A.). Metyrapone was dissolved in double distilled water and PK 11195 and clonazepam were suspended in 1% Tween 80 and adjusted to volume with saline.
PTZ seizure threshold was determined according to a protocol used previously in our laboratory (Dhir et al., 2011). Intravenous PTZ elicits a sequence of seizure signs beginning with twitch and progressing to clonus and tonic limb extension. In the present study, tonic extension was used as the endpoint. […] It is noteworthy that this is the endpoint originally used in studies characterizing the actions of midazolam against PTZ seizures in mice (Pieri, 1983 Br J Clin Pharmacol 16 Suppl 1: 17S-27S). A 27 gauge-¾ inch “butterfly” needle was inserted into the lateral tail vein and the needle was secured with a narrow piece of adhesive tape. The animal was placed inside a 2 L glass beaker with free aeration from the top and allowed to move freely. The needle was connected by polyethylene tubing to a Beckton, Dickinson 1 ml syringe mounted on an infusion pump (Model ‘11’ plus syringe pump; Harvard Apparatus, Holliston, Mass.). PTZ solution (10 mg/ml) was infused at a constant rate of 0.5 ml/min. The infusion was stopped at 3 min or at the onset of tonic extension, whichever occurred first. The threshold value (mg/kg) for tonic extension was determined according to the formula: (infusion duration [sec]×infusion rate [ml/min]×PTZ concentration [mg/ml]×1000)/(60 [sec]×weight of mouse [g]).
In an initial experiment, the dose-response relationship for midazolam elevation of seizure threshold was assessed at doses of 100 μg/kg to 5 mg/kg (15 min pretreatment time). […] PK 11195 was used at a dose (15 mg/kg) as in the study of Ugale et al. (2004 Brain Res. 2004 Oct. 8; 1023(1):102-11). Clonazepam was administered at a dose of 100 μg/kg (Akula et al., 2009). The volume of all intraperitoneal injections was 10 ml/kg.
Results are expressed as mean±S.E.M.; the significance of the difference in the responses of treatment groups with respect to control is based on one-way analysis of variance (ANOVA) followed by specific post-hoc comparisons using Tukey's test. Differences are considered statistically significant when the probability of type I error was less than 0.05.

For `Cc1ncc2n1-c1ccc(Cl)cc1C(c1ccccc1F)=NC2` [Midazolam, midazolam], the “acute motor toxicity, horizontal screen test” value [1] was “No motor toxicity was observed”, the “PTZ threshold for tonic extension vs vehicle” value (PTZ-induced seizures; intraperitoneal 500 to 5000 μg/kg (significant), 15 min before PTZ infusion (FIG. 7)) was “dose-dependent elevation in threshold” and the “increase in threshold for tonic extension (vs vehicle only control)” value (PTZ-induced seizures; midazolam 500 μg/kg i.p., 15 min before i.v. PTZ infusion, in the absence of finasteride) was 2.3 fold. The “PTZ seizure threshold vs vehicle” value (PTZ-induced seizures; midazolam 100 or 200 μg/kg intratracheal, 10 min before PTZ, in the absence of flumazenil (FIG. 12)) was “significant increase in the seizure threshold”.
